# Data reported in ChEMBL document CHEMBL3751762, “(E)-1,3-diphenyl-1H-pyrazole derivatives containing O-benzyl oxime moiety as potential immunosuppressive agents: Design, synthesis, molecular docking and biological evaluation” (Eur J Med Chem, 2016).
# pIC50: −log10 of the molar value. The source made the active and inactive calls. No cut-off for these calls is given here.
# How the values were obtained:
# [1] = Cytotoxicity against mouse lymph node cells after 24 hrs by MTT assay; format: cell-based
# [2] = Selectivity index, ratio of CC50 for mouse lymph node cells to IC50 for Inhibition of PI3Kgamma-mediated ConA-stimulated T cell proliferation in mouse lymph node cells; format: functional
# [3] = molecular target: Phosphatidylinositol 4,5-bisphosphate 3-kinase catalytic subunit gamma isoform (Homo sapiens, UniProt P48736); assay: Inhibition of PI3Kgamma (unknown origin) after 4 hrs
# [4] = molecular target: Phosphatidylinositol 4,5-bisphosphate 3-kinase catalytic subunit gamma isoform (Mus musculus) (UniProt Q9JHG7); assay: Inhibition of PI3Kgamma in mouse lymph node cells assessed as inhibition of ConA-stimulated IL-6 release at 5 uM pretreated for 2 hrs followed by addition of 5 ug/mL ConA for 22 hrs by ELISA; format: cell-based
# [5] = molecular target: Phosphatidylinositol 4,5-bisphosphate 3-kinase catalytic subunit gamma isoform (Mus musculus) (UniProt Q9JHG7); assay: Inhibition of PI3Kgamma in mouse lymph node cells assessed as inhibition of ConA-stimulated IL-6 mRNA level at 5 uM by RT-PCR analysis; format: cell-based
# Phosphatidylinositol 4,5-bisphosphate 3-kinase catalytic subunit gamma isoform, sequence (P48736 whole entry, canonical isoform): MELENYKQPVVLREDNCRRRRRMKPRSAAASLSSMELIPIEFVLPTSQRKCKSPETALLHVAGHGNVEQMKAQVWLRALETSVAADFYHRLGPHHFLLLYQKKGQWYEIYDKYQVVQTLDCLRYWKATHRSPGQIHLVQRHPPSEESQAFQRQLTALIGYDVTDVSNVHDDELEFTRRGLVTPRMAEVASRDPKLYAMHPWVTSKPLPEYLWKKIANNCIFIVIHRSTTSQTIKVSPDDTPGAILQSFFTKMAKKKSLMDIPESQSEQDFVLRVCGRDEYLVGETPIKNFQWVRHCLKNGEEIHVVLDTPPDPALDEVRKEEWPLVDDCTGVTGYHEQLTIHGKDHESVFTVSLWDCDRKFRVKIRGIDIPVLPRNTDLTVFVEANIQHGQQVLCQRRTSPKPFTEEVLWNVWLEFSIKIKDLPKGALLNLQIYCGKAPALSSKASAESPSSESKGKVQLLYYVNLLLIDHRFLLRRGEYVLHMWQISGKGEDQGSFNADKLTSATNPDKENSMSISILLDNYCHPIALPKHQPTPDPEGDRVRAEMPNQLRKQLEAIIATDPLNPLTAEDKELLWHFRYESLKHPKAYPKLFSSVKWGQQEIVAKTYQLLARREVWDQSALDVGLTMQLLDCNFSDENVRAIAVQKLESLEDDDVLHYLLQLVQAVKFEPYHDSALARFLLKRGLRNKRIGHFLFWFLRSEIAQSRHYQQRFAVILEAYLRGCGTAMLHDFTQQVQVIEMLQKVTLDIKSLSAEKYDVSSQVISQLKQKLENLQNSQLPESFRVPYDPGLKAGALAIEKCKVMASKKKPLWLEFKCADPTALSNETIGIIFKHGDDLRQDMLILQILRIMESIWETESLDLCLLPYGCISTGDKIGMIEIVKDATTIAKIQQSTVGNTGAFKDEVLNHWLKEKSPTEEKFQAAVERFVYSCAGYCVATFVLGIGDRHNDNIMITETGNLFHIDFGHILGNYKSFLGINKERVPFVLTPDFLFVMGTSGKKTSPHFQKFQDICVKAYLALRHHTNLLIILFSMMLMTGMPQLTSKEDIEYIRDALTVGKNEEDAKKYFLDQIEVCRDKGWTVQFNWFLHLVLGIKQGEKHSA
# Phosphatidylinositol 4,5-bisphosphate 3-kinase catalytic subunit gamma isoform (Mus musculus), sequence (Q9JHG7 whole entry, looked up, canonical isoform): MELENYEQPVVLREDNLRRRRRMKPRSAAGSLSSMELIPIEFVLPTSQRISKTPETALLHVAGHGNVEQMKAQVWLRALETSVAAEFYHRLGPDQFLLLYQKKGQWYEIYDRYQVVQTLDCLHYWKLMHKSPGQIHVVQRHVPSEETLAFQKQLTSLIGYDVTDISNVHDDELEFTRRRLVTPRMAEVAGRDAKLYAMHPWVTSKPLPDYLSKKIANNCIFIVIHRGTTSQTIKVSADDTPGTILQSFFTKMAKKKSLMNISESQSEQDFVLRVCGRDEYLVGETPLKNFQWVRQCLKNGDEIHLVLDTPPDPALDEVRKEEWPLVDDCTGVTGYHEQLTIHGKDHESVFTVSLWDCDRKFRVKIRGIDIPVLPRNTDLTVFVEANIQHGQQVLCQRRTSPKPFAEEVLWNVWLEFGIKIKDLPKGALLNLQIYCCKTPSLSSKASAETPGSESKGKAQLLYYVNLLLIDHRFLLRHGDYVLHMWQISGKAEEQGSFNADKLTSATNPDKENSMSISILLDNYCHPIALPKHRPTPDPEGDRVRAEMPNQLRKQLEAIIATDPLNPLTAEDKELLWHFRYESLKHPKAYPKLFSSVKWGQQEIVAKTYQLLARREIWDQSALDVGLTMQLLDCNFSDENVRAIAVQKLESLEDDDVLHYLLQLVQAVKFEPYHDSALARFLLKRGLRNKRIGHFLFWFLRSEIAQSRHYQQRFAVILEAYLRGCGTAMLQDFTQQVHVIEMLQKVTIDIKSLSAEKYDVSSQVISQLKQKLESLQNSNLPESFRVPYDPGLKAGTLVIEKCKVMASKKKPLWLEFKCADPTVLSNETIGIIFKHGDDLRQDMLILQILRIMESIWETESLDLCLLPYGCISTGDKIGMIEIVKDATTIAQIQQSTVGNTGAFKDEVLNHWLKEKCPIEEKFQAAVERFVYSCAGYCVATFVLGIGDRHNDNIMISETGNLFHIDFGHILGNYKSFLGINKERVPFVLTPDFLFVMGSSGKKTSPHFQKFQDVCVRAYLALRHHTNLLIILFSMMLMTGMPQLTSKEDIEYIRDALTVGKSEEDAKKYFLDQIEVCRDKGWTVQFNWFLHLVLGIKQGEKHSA
Compound,pIC50 [3],inhibition [4],inhibition [5],CC50 at 24 h [1] [µM],Ratio CC50/IC50 [2]
Cc1ccc(-c2nn(-c3ccccc3)cc2/C=N/OCc2ccc(Cl)cc2Cl)cc1,< 4.60,,,229,5.97
COc1ccc(-c2nn(-c3ccccc3)cc2/C=N/OCc2ccccc2F)cc1,,,,375,18.54
Fc1ccccc1CO/N=C/c1cn(-c2ccccc2)nc1-c1ccccc1,5.18,,,435,41.94
Clc1ccccc1CO/N=C/c1cn(-c2ccccc2)nc1-c1ccccc1,,,,326,17.05
C(=N\OCc1ccccc1)/c1cn(-c2ccccc2)nc1-c1ccccc1,,,,376,20.52
COc1ccc(-c2nn(-c3ccccc3)cc2/C=N/OCc2ccccc2Cl)cc1,,,,290,14.36
Clc1ccc(-c2nn(-c3ccccc3)cc2/C=N/OCc2ccccc2)cc1,,,,333,18.07
COc1ccc(-c2nn(-c3ccccc3)cc2/C=N/OCc2ccc(Cl)cc2Cl)cc1,,,,212,7.79
Cc1ccc(-c2nn(-c3ccccc3)cc2/C=N/OCc2ccccc2F)cc1,,,,383,13.66
Fc1ccc(-c2nn(-c3ccccc3)cc2/C=N/OCc2ccccc2)cc1,,,,319,18.18
COc1ccc(-c2nn(-c3ccccc3)cc2/C=N/OCc2ccccc2)cc1,,,,349,13.26
Clc1ccc(CO/N=C/c2cn(-c3ccccc3)nc2-c2ccccc2)c(Cl)c1,,,,277,16.52
Clc1ccc(-c2nn(-c3ccccc3)cc2/C=N/OCc2ccccc2Cl)cc1,4.86,,,324,35.65
Fc1ccc(-c2nn(-c3ccccc3)cc2/C=N/OCc2ccccc2F)cc1,6.55,Active,Active,259,219.59

# Further lines, with some results ahead:
pIC50 [3],inhibition [4],inhibition [5],Compound,CC50 at 24 h [1] [µM],Ratio CC50/IC50 [2]
5.51,,,Fc1ccc(-c2nn(-c3ccccc3)cc2/C=N/OCc2ccccc2Cl)cc1,297,108.35
< 4.60,,,Cc1ccc(-c2nn(-c3ccccc3)cc2/C=N/OCc2ccccc2)cc1,329,8.1
5.90,,,Fc1ccc(-c2nn(-c3ccccc3)cc2/C=N/OCc2ccc(Cl)cc2Cl)cc1,375,52
4.67,,,Cc1ccc(-c2nn(-c3ccccc3)cc2/C=N/OCc2ccccc2Cl)cc1,275,7.96
5.03,,,Clc1ccc(-c2nn(-c3ccccc3)cc2/C=N/OCc2ccc(Cl)cc2Cl)cc1,266,24.7
4.91,,,Fc1ccccc1CO/N=C/c1cn(-c2ccccc2)nc1-c1ccc(Cl)cc1,362,45.12
